Experimental data taken from patent US9433663B2, “Mobilization of hematopoietic stem cells” (Children's Hospital Medical Center, priority 2008, dated 2016).

What was measured:
32D myeloid progenitors = experiment: FACS analysis of F-actin reorganization in 32D progenitors; format: cell-based, murine; conditions: dose-dependent pattern
Text: (§1) To shed light on potential roles of CASIN in HSPC mobilization, the effects of CASIN on Cdc42-related cellular functions was studied, including adhesion, migration, and F-actin polymerization of progenitor cells in 32D myeloid progenitors. […] SDF-1α stimulation causes a reorganization of F-actin into a cortical ring around the cells. […] Thirdly, to gain further insight into cellular specificity and efficacy of CASIN, and also to rule out possible toxic effects by CASIN, Cdc42-involved BM progenitor cell functions were examined, including proliferation, adhesion, migration, and F-actin polymerization, in Cdc42^+/+ cells in parallel with Cdc42^−/− cells. In line with additional studies in a Cdc42 conditional knockout mouse model as described herein, Cdc42^−/− LDBM cells have increased CFU-forming progenitors compared to those of Cdc42^+/+.

LDBM cells = experiment: CFU-adhesion assay of LDBM cells on fibronectin; format: cell-based, murine
Text: as §1
Murine LDBM cells from Cdc42^+/+ as well as Cdc42^−/− mice were used for CFU-adhesion/migration experiments as described previously. Briefly, for adhesion experiment, in the presence or absence of prior CASIN treatment at doses of 5 and 10 μM, 10^5 cells were plated onto each well of 48-well plates pre-coated with fibronectin fragment CH296, which contains integrin α4β1-binding site. Adherent cells then were harvested by cells dissociation buffer (Gibco, Carlsbad, Calif.), and further plated in CFU assay. […]

LT-HSC, ST-HSC, and MPP = experiment: Example 8 kinetics of BM HSC number, cell cycle and reconstitution; format: in vivo, C57Bl/6 mice
Protocol: To monitor the kinetics of CASIN effects on cell number, proliferation, and cell cycle change of HSCs, four time points post-CASIN-administration are focused on in this part. The determination of the four time points depends on the PD analysis to reflect the kinetics of HSCs from relatively quiescent state through proliferative state back to the quiescent state. In this study, the following time points are used: 0, 24, 48, and 96 hours postdosing as an example. Again C57Bl/6 mice are used here. Three subpopulations of HSC/P are investigated and phenotypically defined by flow cytometry: (1) Long-term reconstituting Flk-2-HSC (LT-HSC) subset (Lin−/c-Kit+/Sca-1+/Thy1.1int/FLK2−) capable of extensive self-renewal; (2) Short-term reconstituting Flk-2int HSC(ST-HSCF) subset (Lin−/c-K1t+/Sca-1+/Thy1.1int/FLK2int), which self-renews for a limited interval; (3) Nonself-renewing Flk-2+ multipotent progenitor (MPPF) subset (Lin−/c-K1t+/Sca-1+/Thy1.1int/FLK2+).
Harvest of PB and BM: At 0, 24, 48, and 96 h post CASIN injection, the mice are sacrificed, and then the marrow is flushed from the femurs and tibias of C57Bl/6 mice and the blood cells are collected by cardiac incision.
Change of the frequency and total number of subpopulations of HSC/Ps in BM and PB: Both PB and BM cells are further prepared for flow cytometry analysis. Then, the frequencies of LT-HSC, ST-HSC, and MPP along the four time points are determined using the combinations of cell surface markers mentioned above phenotypically by flow cytometry. The absolute numbers of different subpopulations of HSC in BM and PB are calculated according to the total cellularity of BM and PB of the mice.
Cell cycle analysis: To characterize the cell cycle status of subpopulations of HSCs following treatment with CASIN, double-sorted cells are stained with Hoechst 33342 and Pyronin Y (H/PY), allowing simultaneous assessment of the fraction of cells with more than 2n DNA content (Hoechst 33342), as well as relative levels of total double-stranded RNA (PY). […]

Cdc42 = Cdc42 (Mus musculus, UniProt P60766); experiment: Example 7 effector pull-down in LDBM and HCB cells, Cdc42; format: cell-based, murine LDBM and human HCB cells; parameters: endogenous in cells; host or cells: murine LDBM cells and human CD34+ HCB cells
Cdc42, sequence (P60766 1-188 limits assumed): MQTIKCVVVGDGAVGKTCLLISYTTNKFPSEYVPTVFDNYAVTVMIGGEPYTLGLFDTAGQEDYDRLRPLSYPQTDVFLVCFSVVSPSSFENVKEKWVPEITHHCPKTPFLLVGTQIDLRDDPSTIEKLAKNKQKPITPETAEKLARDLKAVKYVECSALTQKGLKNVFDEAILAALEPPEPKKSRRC
Protocol: To exclude the inhibitory effect of CASIN on other Rac isoforms, Rho GTPases, and Ras, broader effector pull-down experiments are performed on these possible candidates with gradient doses of CASIN in LDBM and HCB cells as previously described. In addition, CASIN has been indicated as a noncovalent and reversible inhibitor in Xenopus egg extract. To confirm it, reversibility is monitored in this set of effector pull-down experiments. Four treatment groups are divided for both LDBM and HCB cells: (1) Serum starvation 20 h; (2) Serum starvation 20 h+growth factors stimulation; (3) Serum starvation 20 h+CASIN treatment (doses: 1, 2.5, 5, and 10 μM) 3 h+growth factor stimulation; (4) Serum starvation 20 h+CASIN treatment (doses: 1, 2.5, 5, and 10 μM) 3 h+wash the cells, and culture for another 3 h for recovery+growth factors stimulation. […] Bound proteins are analyzed by immunoblotting with respective antibodies (BD Biosciences). Furthermore, changes of downstream targets of Cdc42, Rac, and Rho under the four treatment groups are assessed. Phosphorylation status of PAK1, WASP (effectors of Cdc42), WAVE (effector of Rac), and ROCK (effector of Rho) are monitored by western blots using respective antibodies.

OCCNC1CCCc2c1[nH]c1ccc(-c3ccccc3)cc21 (centres unmarked) [CASIN]
F-actin reorganization stimulated by SDF1α (32D myeloid progenitors): significantly dampened
adhesion of colony-forming progenitors to fibronectin surface (LDBM cells; Cdc42^+/+ LDBM cells): dose-dependently inhibited
adhesion activity of Cdc42^−/− cells (LDBM cells; Cdc42^−/− LDBM cells): did not have additive effects
reconstitution frequency of BM LT-HSCs (LT-HSC, ST-HSC, and MPP; 48 hours post injection, compared to non-treated mice): significantly decreases
cell cycle status of HSC/P subpopulations (H/PY staining) (LT-HSC, ST-HSC, and MPP; after CASIN administration): decreased frequencies of cells in G0 phase
numbers and frequencies of LT-HSC, ST-HSC, and MPP population in BM (LT-HSC, ST-HSC, and MPP; post-CASIN administration): increase dramatically up to 48 h post-CASIN administration
activity of Cdc42 (Cdc42): specifically inhibit the activity of Cdc42 in a dose-dependent manner
recovery of Cdc42 activity after wash (Cdc42): recovers 3 h after CASIN is washed away
